# Target: Recombinant human ATX (Homo sapiens (Human), UniProt Q13822)
# Assay: ATX inhibition assay (choline release, Amplex Red fluorescence)
# Format: biochemical
# Settings: ATX 10 nM, LPC 18:1 10 μM, 37° C., 20 min pre-incubation; mean of n≧2
# Description: Reagents—LPC (oleoyl (18:1)) was purchased from Avanti Polar Lipids (Alabaster, Ala.) and solubilized in methanol to 20 mM. Amplex Red was obtained from Invitrogen Life Technologies (Paisley, UK) and dissolved in DMSO to 10 mM. Choline oxidase and horseradish peroxidase (HRP) were obtained from Sigma Aldrich (Dorset, UK) and dissolved in HBSS to 20 U/ml and 200 U/ml respectively. All reagents were stored at −20° C. in single use aliquots. All experimental measurements were performed in assay buffer made up immediately prior to use (HBSS, 0.01% BSA essentially fatty acid free).
# PerkinElmer EnVision (Fluorescence Intensity/Absorbance Monochromator) or Tecan Infinite 200 PRO series plate reader was used to detect change in fluorescent intensity.
# Assessing ATX inhibition—ATX activity was determined by measurement of released choline in reactions containing ATX (10 nM), choline oxidase (0.1 U/ml), HRP (100 U/ml), amplex red (50 μM) and LPC 18:1 (10 μM). Compounds of the invention were prepared as 10 point serial dilutions from 1 μM in duplicate and pre-incubated with ATX at 37° C. for 20 minutes prior to the addition of remaining reagents. The liberated choline was measured from changes in fluorescence intensity (λex 530 nm, λem 590 nm) of the product resurofin at 37° C. every 2 minutes over a 40-minute period. ATX activity was measured as a slope of the linear portion of the progress curve, typically between 14 to 24 minutes.
# Data analysis—Slope data was exported to Graphpad prism (Graphpad software, San Diego, Calif.) where data was fitted to equation 1. Y=Bottom+(Top-Bottom)/(1+10^((Log IC50−X)*HillSlope)) Equation 1: […]
row,IC50 [nM],Compound
1,100,"Cc1cn(C2CCN(C(=O)/C=C/c3ccc(Cl)cc3Cn3nnc(C)n3)CC2)nn1 [Example 9, (E)-3-(4-Chloro-2-((5-methyl-2H-tetrazol-2-yl)methyl)phenyl)-1-(4-(4-methyl-1H-1,2,3-triazol-1-yl)piperidin-1-yl)prop-2-en-1-one]"
2,40,"Cc1ncn(C2CCN(C(=O)/C=C/c3ccc(Cl)cc3Cn3nnc(C)n3)CC2)n1 [Example 10, (E)-3-(4-Chloro-2-((5-methyl-2H-tetrazol-2-yl)methyl)phenyl)-1-(4-(3-methyl-1H-1,2,4-triazol-1-yl)piperidin-1-yl)prop-2-en-1-one]"
3,73,"Cc1nnn(Cc2cc(Cl)ccc2/C=C/C(=O)N2CCC(n3ncnc3C)CC2)n1 [Example 11, (E)-3-(4-Chloro-2-((5-methyl-2H-tetrazol-2-yl)methyl)phenyl)-1-(4-(5-methyl-1H-1,2,4-triazol-1-yl)piperidin-1-yl)prop-2-en-1-one]"
4,157,"Cc1nnn(Cc2cc(Cl)ccc2/C=C/C(=O)N2CCC(n3nnnc3C)CC2)n1 [Example 12, (E)-3-(4-Chloro-2-((5-methyl-2H-tetrazol-2-yl)methyl)phenyl)-1-(4-(5-methyl-1H-tetrazol-1-yl)piperidin-1-yl)prop-2-en-1-one]"
5,2360,"Cc1nnc(Cc2cc(Cl)ccc2/C=C/C(=O)N2CCC(Cc3nnc(C)o3)CC2)o1 [Example 13, (E)-3-(4-Chloro-2-((5-methyl-1,3,4-oxadiazol-2-yl)methyl)phenyl)-1-(4-((5-methyl-1,3,4-oxadiazol-2-yl)methyl)piperidin-1-yl)prop-2-en-1-one]"
6,12,"Cc1nnn(Cc2cc(Cl)ccc2/C=C/C(=O)N2CCC(O)(Cn3cc(C(=O)N4CCOCC4)cn3)CC2)n1 [Example 14, (E)-3-(4-Chloro-2-((5-methyl-2H-tetrazol-2-yl)methyl)phenyl)-1-(4-hydroxy-4-((4-(morpholine-4-carbonyl)-1H-pyrazol-1-yl)methyl)piperidin-1-yl)prop-2-en-1-one]"
7,62,"Cc1nnn(Cc2cc(Cl)ccc2/C=C/C(=O)N2CCC(O)(Cn3cc(C(=O)N(C)C)cn3)CC2)n1 [Example 15, (E)-1-((1-(3-(4-Chloro-2-((5-methyl-2H-tetrazol-2-yl)methyl)phenyl)acryloyl)-4-hydroxypiperidin-4-yl)methyl)-N,N-dimethyl-1H-pyrazole-4-carboxamide]"
8,11,"Cc1nnn(Cc2cc(Cl)ccc2/C=C/C(=O)N2CCC(O)(Cn3cc(C(=O)N4CCCCC4)cn3)CC2)n1 [Example 16, (E)-3-(4-Chloro-2-((5-methyl-2H-tetrazol-2-yl)methyl)phenyl)-1-(4-hydroxy-4-((4-(piperidine-1-carbonyl)-1H-pyrazol-1-yl)methyl)piperidin-1-yl)prop-2-en-1-one]"
9,24,"Cc1nnn(Cc2cc(Cl)ccc2/C=C/C(=O)N2CCC(n3nnc(C)n3)CC2)n1 [Example 17, (E)-3-(4-Chloro-2-((5-methyl-2H-tetrazol-2-yl)methyl)phenyl)-1-(4-(5-methyl-2H-tetrazol-2-yl)piperidin-1-yl)prop-2-en-1-one]"
10,37,"Cc1nnn(Cc2cc(Cl)ccc2/C=C/C(=O)N2CCC(O)(Cn3cc(C(F)(F)F)cn3)CC2)n1 [Example 18, (E)-3-(4-Chloro-2-((5-methyl-2H-tetrazol-2-yl)methyl)phenyl)-1-(4-hydroxy-4-((4-(trifluoromethyl)-1H-pyrazol-1-yl)methyl)piperidin-1-yl)prop-2-en-1-one]"
11,31,"Cc1nnn(Cc2cc(Cl)ccc2/C=C/C(=O)N2CCC(c3noc(C)n3)CC2)n1 [Example 19, (E)-3-(4-Chloro-2-((5-methyl-2H-tetrazol-2-yl)methyl)phenyl)-1-(4-(5-methyl-1,2,4-oxadiazol-3-yl)piperidin-1-yl)prop-2-en-1-one]"
12,163,"Cc1nnn(Cc2cc(Cl)ccc2/C=C/C(=O)N2CCC(CCc3nnc(C)o3)CC2)n1 [Example 20, (E)-3-(4-Chloro-2-((5-methyl-2H-tetrazol-2-yl)methyl)phenyl)-1-(4-(2-(5-methyl-1,3,4-oxadiazol-2-yl)ethyl)piperidin-1-yl)prop-2-en-1-one]"
13,208,"Cc1noc(Cc2cc(Cl)ccc2/C=C/C(=O)N2CCC(Cc3nnc(C)o3)CC2)n1 [Example 21, (E)-3-(4-Chloro-2-((3-methyl-1,2,4-oxadiazol-5-yl)methyl)phenyl)-1-(4-((5-methyl-1,3,4-oxadiazol-2-yl)methyl)piperidin-1-yl)prop-2-en-1-one]"
14,26,"Cc1nnn(Cc2cc(Cl)ccc2/C=C/C(=O)N2CCC(n3nccn3)CC2)n1 [Example 22, (E)-1-(4-(2H-1,2,3-Triazol-2-yl)piperidin-1-yl)-3-(4-chloro-2-((5-methyl-2H-tetrazol-2-yl)methyl)phenyl)prop-2-en-1-one]"
15,4,"Cc1nnn(Cc2cc(Cl)ccc2/C=C/C(=O)N2CCC(c3ncc(C)o3)CC2)n1 [Example 24, (E)-3-(4-Chloro-2-((5-methyl-2H-tetrazol-2-yl)methyl)phenyl)-1-(4-(5-methyloxazol-2-yl)piperidin-1-yl)prop-2-en-1-one]"
16,8.5,"Cc1cnn(C2CCN(C(=O)/C=C/c3ccc(Cl)cc3Cn3nnc(C)n3)CC2)n1 [Example 25, (E)-3-(4-Chloro-2-((5-methyl-2H-tetrazol-2-yl)methyl)phenyl)-1-(4-(4-methyl-2H-1,2,3-triazol-2-yl)piperidin-1-yl)prop-2-en-1-one]"
17,31,"Cc1nnn(Cc2cc(Cl)ccc2/C=C/C(=O)N2CCC(CCCc3nnc(C)o3)CC2)n1 [Example 26, (E)-3-(4-Chloro-2-((5-methyl-2H-tetrazol-2-yl)methyl)phenyl)-1-(4-(3-(5-methyl-1,3,4-oxadiazol-2-yl)propyl)piperidin-1-yl)prop-2-en-1-one]"
18,59,"Cc1nnn(Cc2cc(Cl)ccc2/C=C/C(=O)N2CCC(c3coc(C)n3)CC2)n1 [Example 27, (E)-3-(4-Chloro-2-((5-methyl-2H-tetrazol-2-yl)methyl)phenyl)-1-(4-(2-methyloxazol-4-yl)piperidin-1-yl)prop-2-en-1-one]"
19,6.3,"Cc1cnn(C2CCN(C(=O)/C=C/c3ccc(Cl)cc3Cn3nnc(C)n3)CC2)c1 [Example 28, (E)-3-(4-Chloro-2-((5-methyl-2H-tetrazol-2-yl)methyl)phenyl)-1-(4-(4-methyl-1H-pyrazol-1-yl)piperidin-1-yl)prop-2-en-1-one]"
20,32,"COC(=O)C1CCCCN1C(=O)/C=C/c1ccc(Cl)cc1Cn1nnc(C)n1 (stereo not drawn) [Example 29, (E)-Methyl 1-(3-(4-Chloro-2-((5-methyl-2H-tetrazol-2-yl)methyl)phenyl)acryloyl) piperidine-2-carboxylate]"
21,3.5,"CCOC(=O)c1cnn(CC2(O)CCN(C(=O)/C=C/c3ccc(Cl)cc3Cn3nnc(C)n3)CC2)c1 [Example 32, (E)-Ethyl 1-((1-(3-(4-chloro-2-((5-methyl-2H-tetrazol-2-yl)methyl)phenyl)acryloyl)-4-hydroxypiperidin-4-yl)methyl)-1H-pyrazole-4-carboxylate]"
22,53,"Cc1cnn(CCC2CCN(C(=O)/C=C/c3ccc(Cl)cc3Cn3nnc(C)n3)CC2)c1 [Example 33, (E)-3-(4-Chloro-2-((5-methyl-2H-tetrazol-2-yl)methyl)phenyl)-1-(4-(2-(4-methyl-1H-pyrazol-1-yl)ethyl)piperidin-1-yl)prop-2-en-1-one]"
23,924,"Cc1nnn(Cc2cc(Cl)ccc2/C=C/C(=O)N2CCC(O)(Cn3cc(C(=O)O)cn3)CC2)n1 [Example 35, (E)-1-((1-(3-(4-Chloro-2-((5-methyl-2H-tetrazol-2-yl)methyl)phenyl)acryloyl)-4-hydroxypiperidin-4-yl)methyl)-1H-pyrazole-4-carboxylic acid]"
24,171,"Cc1nnn(Cc2cc(C(F)(F)F)ccc2OCC(=O)N2CCC(c3noc(C)n3)CC2)n1 [Example 36, 1-(4-(5-Methyl-1,2,4-oxadiazol-3-yl)piperidin-1-yl)-2-(2-((5-methyl-2H-tetrazol-2-yl)methyl)-4-(trifluoromethyl)phenoxy)ethanone]"
25,17,"Cc1ncn(C2CCN(C(=O)/C=C/c3ccc(C(F)(F)F)cc3Cn3nnc(C)n3)CC2)n1 [Example 37, (E)-1-(4-(3-Methyl-1H-1,2,4-triazol-1-yl)piperidin-1-yl)-3-(2-((5-methyl-2H-tetrazol-2-yl)methyl)-4-(trifluoromethyl)phenyl)prop-2-en-1-one]"
26,75,"C/C(=C\C(=O)N1CCC(c2nnc(C)o2)CC1)c1ccc(Cl)cc1Cn1nnc(C)n1 [Example 39, (E)-3-(4-Chloro-2-((5-methyl-2H-tetrazol-2-yl)methyl)phenyl)-1-(4-(5-methyl-1,3,4-oxadiazol-2-yl)piperidin-1-yl)but-2-en-1-one]"
27,42,"Cc1nnn(Cc2cc(C(F)(F)F)ccc2CCC(=O)N2CCC(c3nnc(C)o3)CC2)n1 [Example 40, 1-(4-(5-Methyl-1,3,4-oxadiazol-2-yl)piperidin-1-yl)-3-(2-((5-methyl-2H-tetrazol-2-yl)methyl)-4-(trifluoromethyl)phenyl)propan-1-one]"

# Source: patent publication US9763957B2, “Autotaxin inhibitors” (Novartis AG, priority 2013, dated 2017)
